Where only a bound is given, the exact number is not on record here.

Human Factor D, sequence (P00746 26-253): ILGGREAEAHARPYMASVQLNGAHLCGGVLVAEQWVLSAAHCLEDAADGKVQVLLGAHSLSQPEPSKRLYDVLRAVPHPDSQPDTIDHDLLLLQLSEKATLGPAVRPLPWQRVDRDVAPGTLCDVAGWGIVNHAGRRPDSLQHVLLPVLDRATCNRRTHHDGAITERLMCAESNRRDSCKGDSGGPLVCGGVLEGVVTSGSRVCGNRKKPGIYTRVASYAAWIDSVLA

For the first experiment, the target named is Human Factor D (Homo sapiens (Human), UniProt P00746). Put plainly: Human Factor D assay. Type of experiment: biochemical. The settings on record: Table 3; Factor D inhibition, substrate Z-L-Lys-SBzl. How it is done:
Human Factor D (purified from human serum, Complement Technology, Inc.) at 80 nM final concentration is incubated with test compound at various concentrations for 5 min at room temperature in 50 mM Tris, 1M NaCl, pH 7.5. A synthetic substrate Z-L-Lys-SBzl and DTNB (Ellman's reagent) are added to final concentrations of 100 μM each. […] IC50 values are calculated by nonlinear regression of complement Factor D reaction rates as a function of test compound concentration.
Turning to `CC(=O)c1nn(CC(=O)N2C[C@H](F)C[C@H]2C(=O)Nc2cccc(-c3ccc4scnc4c3)c2F)c2ccc(-c3cnc4cc(C)nn4c3)cc12` [Compound 519, (2S,4R)-1-(2-(3-acetyl-5-(2-methylpyrazolo[1,5-a]pyrimidin-6-yl)-1H-indazol-1-yl)acetyl)-N-(3-(benzo[d]thiazol-5-yl)-2-fluorophenyl)-4-fluoropyrrolidine-2-carboxamide], the IC50 (in general, the concentration needed to halve the response being measured) is less than 1000 nM.

Compound `CC(=O)c1nn(CC(=O)N2C[C@H](F)C[C@H]2C(=O)Nc2cccc(-c3cc(S(N)(=O)=O)ccc3Cl)c2F)c2ccc(-c3cnc(C)nc3)cc12` [Compound 525, (2S,4R)-1-(2-(3-acetyl-5-(2-methylpyrimidin-5-yl)-1H-indazol-1-yl)acetyl)-N-(2′-chloro-2-fluoro-5′-sulfamoylbiphenyl-3-yl)-4-fluoropyrrolidine-2-carboxamide] came in with a concentration for half-maximal inhibition (IC50) of less than 1000 nM.

The experiment is the same for the next values; noted with them: Table 4; Factor D inhibition, substrate Z-L-Lys-SBzl.
`CC(=O)c1nn(CC(=O)N2C[C@H](F)C[C@H]2c2nnc(-c3cccc(Cl)c3F)o2)c2ccc(-c3cnc(C)nc3)cc12` [Compound 574, 2-(3-Acetyl-5-(2-methylpyrimidin-5-yl)-1H-indazol-1-yl)-1-((2S,4R)-2-(5-(3-chloro-2-fluorophenyl)-1,3,4-oxadiazol-2-yl)-4-fluoropyrrolidin-1-yl)ethan-1-one] registered a half-inhibitory concentration (IC50) of 1000 to 10000 nM.

Take `CC(=O)c1nn(CC(=O)N2C[C@H](F)C[C@H]2C(=O)Nc2cccc(-c3ccc4c(c3Cl)NCCN4)c2F)c2ccc(-c3cnc(C)nc3)cc12` [Compound 560, (2S,4R)-1-(2-(3-Acetyl-5-(2-methylpyrimidin-5-yl)-1H-indazol-1-yl)acetyl)-N-(3-(5-chloro-1,2,3,4-tetrahydroquinoxalin-6-yl)-2-fluorophenyl)-4-fluoropyrrolidine-2-carboxamide]: the half-inhibitory concentration (IC50) was less than 1000 nM.

On to `COC(=O)Cc1ccccc1CNC(=O)Cn1nc(C(C)=O)c2cc(-c3cnc(C)nc3)ccc21` [Compound 537, methyl 2-(2-((2-(3-acetyl-5-(2-methylpyrimidin-5-yl)-1H-indazol-1-yl)acetamido)meth-yl)phenyl)acetate], for which the IC50 was more than 10000 nM.

As to `CC(=O)c1nn(CC(=O)N2CCC[C@H](CNC(=O)c3cccc(Br)n3)C2)c2ccc(-c3cnc(C)nc3)cc12` [Compound 556, (R)—N-((1-(2-(3-Acetyl-5-(2-methylpyrimidin-5-yl)-1H-indazol-1-yl)acetyl)piperidin-3-yl)methyl)-6-bromopicolinamide], the half-maximal inhibitory concentration (IC50) is more than 10000 nM.

On to `COc1cc(CC(=O)N2C[C@H](F)C[C@H]2C(=O)Nc2cccc(-c3ccccc3Cl)c2F)cc(-c2cnc(C)nc2)c1` [Compound 636, (2S,4R)—N-(2′-chloro-2-fluoro-[1,1′-biphenyl]-3-yl)-4-fluoro-1-(2-(3-methoxy-5-(2-methylpyrimidin-5-yl)phenyl)acetyl)pyrrolidine-2-carboxamide], for which the concentration for half-maximal inhibition (IC50) was less than 1000 nM.

As for `Cc1cccc(NC(=O)[C@@H]2CCC(F)CCN2C(=O)Cn2cc(C(N)=O)c3cc(-c4ccc(N)nc4)ccc32)n1` (stereo partly drawn) [Compound 595, 5-(6-Aminopyridin-3-yl)-1-(2-((2S)-5-fluoro-2-((6-methylpyridin-2-yl)carbamoyl)azepan-1-yl)-2-oxoethyl)-1H-indole-3-carboxamide], the IC50 is more than 10000 nM.

For the compound `CC(=O)c1nn(CC(=O)N2C[C@H](F)C[C@H]2CC(=O)NO)c2ccc(-c3cnc(C)nc3)cc12` [Compound 592, 2-((2R,4R)-1-(2-(3-Acetyl-5-(2-methylpyrimidin-5-yl)-1H-indazol-1-yl)acetyl)-4-fluoropyrrolidin-2-yl)-N-hydroxyacetamide], the IC50 was more than 10000 nM.

For the compound `CC(=O)c1nn(CC(=O)N2C[C@H](F)C[C@H]2C(=O)Nc2cccc(-c3ccc4scnc4c3)c2F)c2ccc(-c3cnc4cc(C)nn4c3)cc12` [Compound 639, (2S,4R)-1-(2-(3-acetyl-5-(4-methylpyrazolo[1,5-a]pyrimidin-6-yl)-1H-indazol-1-yl)acetyl)-N-(3-(benzo[d]thiazol-5-yl)-2-fluorophenyl)-4-fluoropyrrolidine-2-carboxamide], the IC50 is less than 1000 nM.

Values taken from US11407738B2 (Achillion Pharmaceuticals, Inc., priority 2015, dated 2022).
